Measured values as given in patent US20130309306A1, “INTRAPULMONARY BENZODIAZEPINE FOR THE TREATMENT AND PREVENTION OF SEIZURES” (priority 2010, published 2013).

System: PTZ-induced seizures
Assay: PTZ seizure threshold test, tonic extension endpoint, Example 2
Type: in vivo, mice
Method: NIH Swiss mice (22-30 g) were kept in a vivarium under controlled environmental conditions (temperature, 22-26° C.; humidity, 40-50%) with an artificial 12-h light/dark cycle. Wood chips were used in all cages. Experiments were performed during the light phase of the light/dark cycle after a minimum 30-min period of acclimation to the experimental room. The animal facilities were fully accredited by the Association for Assessment and Accreditation of Laboratory Animal Care. All studies were performed under protocols approved by the Animal Care and Use Committee of the University of California, Davis in strict compliance with the Guide for the Care and Use of Laboratory Animals of the National Research Council (National Academy Press, Washington, D.C.; on the internet at nap.edu/readingroom/books/labrats/).
Midazolam was administered as a commercially available injectable solution (midazolam hydrochloride, 10 mg/10 ml; APP Pharmaceuticals, Schaumburg, Ill., USA) containing sodium chloride (0.8% w/v), disodium edetate (0.01% w/v), benzyl alcohol as preservative (1% v/v) with HCl to adjust the pH 3-3.6. Pentylenetetrazol (PTZ) (Sigma-Aldrich, St. Louis, Mo., USA) was dissolved in 0.9% w/v saline. The remaining test substances were all obtained from Tocris Bioscience (Ellisville, Mo., USA) except for clonazepam, which was from Sigma-Aldrich. Finasteride was dissolved in 25% hydroxypropyl-β-cyclodextrin (Trappsol; Cyclodextrin Technologies Development, High Springs, Fla., U.S.A.). Metyrapone was dissolved in double distilled water and PK 11195 and clonazepam were suspended in 1% Tween 80 and adjusted to volume with saline.
PTZ seizure threshold was determined according to a protocol used previously in our laboratory (Dhir et al., 2011). Intravenous PTZ elicits a sequence of seizure signs beginning with twitch and progressing to clonus and tonic limb extension. In the present study, tonic extension was used as the endpoint. […] It is noteworthy that this is the endpoint originally used in studies characterizing the actions of midazolam against PTZ seizures in mice (Pieri, 1983 Br J Clin Pharmacol 16 Suppl 1: 17S-27S). A 27 gauge-¾ inch “butterfly” needle was inserted into the lateral tail vein and the needle was secured with a narrow piece of adhesive tape. The animal was placed inside a 2 L glass beaker with free aeration from the top and allowed to move freely. The needle was connected by polyethylene tubing to a Beckton, Dickinson 1 ml syringe mounted on an infusion pump (Model ‘11’ plus syringe pump; Harvard Apparatus, Holliston, Mass.). PTZ solution (10 mg/ml) was infused at a constant rate of 0.5 ml/min. The infusion was stopped at 3 min or at the onset of tonic extension, whichever occurred first. The threshold value (mg/kg) for tonic extension was determined according to the formula: (infusion duration [sec]×infusion rate [ml/min]×PTZ concentration [mg/ml]×1000)/(60 [sec]×weight of mouse [g]).
In an initial experiment, the dose-response relationship for midazolam elevation of seizure threshold was assessed at doses of 100 μg/kg to 5 mg/kg (15 min pretreatment time). […] PK 11195 was used at a dose (15 mg/kg) as in the study of Ugale et al. (2004 Brain Res. 2004 Oct. 8; 1023(1):102-11). Clonazepam was administered at a dose of 100 μg/kg (Akula et al., 2009). The volume of all intraperitoneal injections was 10 ml/kg.
Results are expressed as mean±S.E.M.; the significance of the difference in the responses of treatment groups with respect to control is based on one-way analysis of variance (ANOVA) followed by specific post-hoc comparisons using Tukey's test. Differences are considered statistically significant when the probability of type I error was less than 0.05.

## O=C1CN=C(c2ccccc2Cl)c2cc([N+](=O)[O-])ccc2N1 [clonazepam]
Clonazepam 100 μg/kg i.p., 15 min before i.v. PTZ infusion, in the absence of finasteride
  increase in threshold for tonic extension (vs vehicle only control): 2.8 fold

## CCOC(=O)c1ncn2c1CN(C)C(=O)c1cc(F)ccc1-2 [flumazenil]
Flumazenil 5 mg/kg i.p. 5 min before midazolam 100 and 200 μg/kg intratracheal (FIG. 12)
  effect on threshold elevation caused by intratracheal midazolam: did abolish the threshold elevation
Flumazenil 5 mg/kg i.p. (FIG. 12)
  PTZ seizure threshold, pretreatment by itself: did not alter the PTZ seizure threshold

## CC(C)(C(=O)c1cccnc1)c1cccnc1 [metyrapone]
Metyrapone 100 mg/kg i.p. 15 min before midazolam 500 μg/kg i.p. (FIG. 9)
  PTZ seizure threshold when administered prior to midazolam: further increment in threshold
Metyrapone 100 mg/kg i.p. (FIG. 9)
  PTZ seizure threshold, by itself: significant elevation in the threshold

## CC(C)(C)NC(=O)[C@H]1CC[C@H]2[C@@H]3CC[C@H]4NC(=O)C=C[C@]4(C)[C@H]3CC[C@]12C [finasteride]
Finasteride 100 mg/kg i.p. 5 min before midazolam 100 μg/kg intratracheal (FIG. 13)
  effect on threshold elevation caused by intratracheal midazolam: did significantly reduce the threshold elevation
Finasteride 100 mg/kg i.p. 5 min before midazolam 500 μg/kg i.p. (FIG. 8)
  effect on threshold elevation caused by midazolam: partially reduce the threshold elevation
Finasteride 100 mg/kg i.p. before clonazepam 100 μg/kg i.p. (FIG. 11 upper panel)
  effect on seizure threshold elevation produced by clonazepam: did reduce the seizure threshold elevation
Finasteride 100 mg/kg i.p., no midazolam (FIG. 8)
  PTZ seizure threshold, pretreatment by itself: did not alter the PTZ seizure threshold
Finasteride 50 and 100 mg/kg i.p. (FIG. 13)
  PTZ seizure threshold, pretreatment by itself: did not alter the PTZ seizure threshold
Finasteride before lower dose of clonazepam 25 μg/kg
  effect on seizure threshold elevation produced by clonazepam: trend toward an effect of finasteride, although it did not reach statistical significance

## CCC(C)N(C)C(=O)c1cc2ccccc2c(-c2ccccc2Cl)n1 (centres unmarked) [PK 11195, 1-(2-chlorophenyl)-N-methyl-N-(1-methylpropyl)-3-isoquinolinecarboxamide]
PK 11195 15 mg/kg i.p.
  PTZ seizure threshold, by itself: did not affect the seizure threshold
PK 11195 15 mg/kg i.p. 30 min before clonazepam (FIG. 11 lower panel)
  effect on seizure threshold elevation produced by clonazepam: did not reduce the seizure threshold elevation
PK 11195 15 mg/kg i.p. 30 min before midazolam 500 μg/kg i.p. (FIG. 10)
  effect on threshold elevation produced by midazolam: significantly reduced the elevation in threshold
